Measurements as given in patent publication US9511010B2, “Compounds useful in the treatment and/or care of the skin, hair and/or mucous membranes and their cosmetic or pharmaceutical compositions” (Lubrizol Advanced Materials, Inc., priority 2012, dated 2016).

Legend:
[1] = system: Adult human epidermal keratinocytes (HEKa); assay: Profile of the gene expression of human epidermal keratinocytes (microarray); assay type: cell-based; conditions: 0.1 mg/ml, 24 hours, vs untreated cells
Procedure: Adult human epidermal keratinocytes (HEKa) were seeded (15×10^4 cells/vial cells/vial T25 cm^2), and were incubated in complete Epilife medium for 7 days at 37° C. in an atmosphere with 5% CO2. After the incubation, the cells were treated for 24 hours at 37° C. in an atmosphere with 5% CO2 with 0.1 mg/ml of the compound Ac-L-Tyr-L-Glu-L-Lys-L-Leu-L-Gln-L-Val-NH2 (Ac-SEQ ID NO:22-NH2) in complete Epilife medium or in complete Epilife medium as a negative control. The incubations and the treatments were carried out in duplicate for each condition.
24 hours after the treatments, the cells were homogenized and the RNA was extracted and purified from each replica and each condition by means of the RNeasyPlus Mini kit by Qiagen. Briefly, RNases were inactivated from cells lysates and samples were passed through special RNA binding columns to eliminate contaminants and impurities and after several microcentrifugation washes, the purified RNA was eluted with 50 μl of ultrapure water. The purity, integrity and concentration of the RNA obtained was evaluated by means of spectrophotometry (Nanodrop) and with a bioanalyzer (Agilent Bioanalyzer).
The marking of the purified RNA was carried out as was the hybridization of the samples in a human gene expression microarray (ASurePrint G3, Agilent). The normalized values obtained with the treatment were compared with the normalized values obtained with the negative control to obtain genes with differential expression. Next, a parametric analysis of the data was carried out by means of the Bioconductor software. Then, the values obtained were evaluated by means of GSEA (Gene Set Analysis Enrichment) to group the genes with differential expression in terms of Gene Ontology. Biological Routes and most significant pathways with a False Discovery Rate (FDR) lower than 25% were selected.

[2] = system: HEKa primary keratinocytes; assay: Host cell reactivation (HCR) assay, activation of DNA repair in primary keratinocytes; assay type: cell-based, human; conditions: 24 hours, basal = 100
Procedure: The host cell reactivation (HCR) assay was used in HEKa primary keratinocytes to evaluate the capacity of the peptides of the invention to repair the damage to the DNA in a biologically functional way. 40,000 cells per well were seeded and they were co-transfected with a control plasmid which constitutively expresses the Firefly luciferase gene (pGL3), previously damaged by UVC, and with an undamaged plasmid which constitutively expresses the Renilla luciferase gene (vector pRluc-N1(h)).
Subsequently the cells were incubated with the compounds of the invention at 0.025 mg/mL and 0.5 mg/mL in EpiLife medium for 24 hours, after which the luminescence due to the activity of the Firefly and Renilla luciferases was measured using the Dual-Go Luciferase Assay System kit following the manufacturer's instructions. The carrier in which the compounds of the invention (EpiLife medium) were dissolved was used as a negative control. The activation percentage of the DNA repair for each sample was calculated standardizing the luminescence values of the Firefly luciferase with regard to the Renilla luciferase, subsequently standardizing with regard to the values of the negative control.
(§1) Each experiment was carried out three times in 3 independent experiments.

FOXO response elements = assay: Stimulation of the expression of proteins regulated by FOXO: luciferase reporter under FOXO response elements; assay type: cell-based, human; conditions: 0.5 mg/mL, 24 hours; carrier (0.05% DMSO) = 100
Procedure: The activation capacity of the FOXO response elements was evaluated in a human epithelial cell line stably transfected with the luciferase gene under the control of a regulatory sequence which contains different FOXO response elements which are in the promoters of the FOXO target genes. The activation capacity of the FOXO response elements indicates the expression of proteins regulated by FOXO. 30,000 cells per well were seeded in a total volume of 100 μL of RPMI 1640 culture medium. After 24 hours the cells with RPMI 1640 culture medium were washed and were incubated with the compounds of the invention at 0.5 mg/mL for 24 hours in a total volume of 100 μL per well. The carrier in which the compounds of the invention were dissolved was used (0.05% DMSO) as a negative control.
The measurement of the activity of the promoter was carried out using the Steady-Go Luciferase Assay System kit following the manufacturer's instructions. The luminescence values (RLU/sec) caused by the reaction between luciferase and the substrate were quantified with a luminometer and normalized by the cell number (absorbance at 630 nm), and the activity of the promoter was determined, which was standardized with regard to the negative control values.
as §1

## Ac-YEKLQV-NH2 [Ac-SEQ ID NO: 22-NH2, Ac-L-Tyr-L-Glu-L-Lys-L-Leu-L-Gln-L-Val-NH2]
[1]; gene ACD, LONGEVITY, TELOMERE MAINTENANCE AND PROTECTION
  % Expression induction, ACD: 10.76%
[1]; gene AIF1, INFLAMMATION, ANTI-INFLAMMATORY RESPONSE
  % Expression induction, AIF1: 19.02%
[1]; gene ANXA1, INFLAMMATION, ANTI-INFLAMMATORY RESPONSE
  % Expression induction, ANXA1: 8.22%
[1]; gene ANXA4, INFLAMMATION, ANTI-INFLAMMATORY RESPONSE
  % Expression induction, ANXA4: 17.69%
[1]; gene ANXA5, INFLAMMATION, ANTI-INFLAMMATORY RESPONSE
  % Expression induction, ANXA5: 22.32%
[1]; gene ATM, CELL CYCLE
  % Expression induction, ATM: 48.53%
[1]; gene ATRX, HELICASE ACTIVITY and ATPase ACTIVITY
  % Expression induction, ATRX: 48.65%
[1]; gene BAG4, APOPTOSIS INHIBITION
  % Expression induction, BAG4: 32.42%
[1]; gene BAX, APOPTOSIS INHIBITION
  % Expression induction, BAX: −60.73%
[1]; gene BCL2, APOPTOSIS INHIBITION
  % Expression induction, BCL2: 59.91%
[1]; gene BCL2L2, APOPTOSIS INHIBITION
  % Expression induction, BCL2L2: 32.49%
[1]; gene BIRC3, APOPTOSIS INHIBITION
  % Expression induction, BIRC3: 16.84%
[1]; gene BIRC6, APOPTOSIS INHIBITION
  % Expression induction, BIRC6: 73.14%
[1]; gene BNIP2, APOPTOSIS INHIBITION
  % Expression induction, BNIP2: 30.68%
[1]; gene BNIP3L, APOPTOSIS INHIBITION
  % Expression induction, BNIP3L: 31.39%
[1]; gene CASP3, APOPTOSIS ACTIVATION
  % Expression induction, CASP3: 31.18%
[1]; gene CDK7, DNA repair, Protein DNA Complex Assembly
  % Expression induction, CDK7: 14.31%
[1]; gene CHD1, HELICASE ACTIVITY and ATPase ACTIVITY
  % Expression induction, CHD1: 40.46%
[1]; gene CHD2, HELICASE ACTIVITY and ATPase ACTIVITY
  % Expression induction, CHD2: 42.59%
[1]; gene DDX1, HELICASE ACTIVITY and ATPase ACTIVITY
  % Expression induction, DDX1: 26.92%
[1]; gene DDX10, HELICASE ACTIVITY and ATPase ACTIVITY
  % Expression induction, DDX10: 27.49%
[1]; gene DDX25, HELICASE ACTIVITY and ATPase ACTIVITY
  % Expression induction, DDX25: 16.24%
[1]; gene ERCC6, HELICASE ACTIVITY and ATPase ACTIVITY
  % Expression induction, ERCC6: 74.50%
[1]; gene ERCC8, DNA repair, Protein DNA Complex Assembly
  % Expression induction, ERCC8: 8.90%
[1]; gene FAS, APOPTOSIS INHIBITION
  % Expression induction, FAS: −15.36%
[1]; gene IL6, INFLAMMATION, ANTI-INFLAMMATORY RESPONSE
  % Expression induction, IL6: −26.30%
[1]; gene MAPK8, APOPTOSIS INHIBITION
  % Expression induction, MAPK8: −33.72%
[1]; gene MCL1, APOPTOSIS ACTIVATION
  % Expression induction, MCL1: −17.76%
[1]; gene MED4, DNA repair, Protein DNA Complex Assembly
  % Expression induction, MED4: 28.80%
[1]; gene MED13, DNA repair, Protein DNA Complex Assembly
  % Expression induction, MED13: 56.75%
[1]; gene MED14, DNA repair, Protein DNA Complex Assembly
  % Expression induction, MED14: 32.54%
[1]; gene MED17, DNA repair, Protein DNA Complex Assembly
  % Expression induction, MED17: 46.25%
[1]; gene MNAT1, DNA repair, Protein DNA Complex Assembly
  % Expression induction, MNAT1: 17.84%
[1]; gene MSH4, CELL CYCLE
  % Expression induction, MSH4: 33.28%
[1]; gene MYC, APOPTOSIS ACTIVATION
  % Expression induction, MYC: 41.70%
[1]; gene NLRP3, INFLAMMATION, ANTI-INFLAMMATORY RESPONSE
  % Expression induction, NLRP3: 36.49%
[1]; gene NLRP12, INFLAMMATION, ANTI-INFLAMMATORY RESPONSE
  % Expression induction, NLRP12: 39.96%
[1]; gene PAPD7, DNA POLYMERASE ACTIVITY
  % Expression induction, PAPD7: 65.27%
[1]; gene POLA1, DNA POLYMERASE ACTIVITY
  % Expression induction, POLA1: 29.28%
[1]; gene POLD4, DNA POLYMERASE ACTIVITY
  % Expression induction, POLD4: 31.74%
[1]; gene POLH, DNA POLYMERASE ACTIVITY
  % Expression induction, POLH: 28.96%
[1]; gene PTEN, other genes involved in LONGEVITY
  % Expression induction, PTEN: 26.04%
[1]; gene RAD17, CELL CYCLE
  % Expression induction, RAD17: 0.21%
[1]; gene RAD21, CELL CYCLE
  % Expression induction, RAD21: 18.22%
[1]; gene RAD50, CELL CYCLE
  % Expression induction, RAD50: 37.66%
[1]; gene RAD54B, CELL CYCLE
  % Expression induction, RAD54B: 26.20%
[1]; gene SETX, HELICASE ACTIVITY and ATPase ACTIVITY
  % Expression induction, SETX: 65.33%
[1]; gene SH3GLB1, APOPTOSIS ACTIVATION
  % Expression induction, SH3GLB1: 52.57%
[1]; gene SMARCA1, HELICASE ACTIVITY and ATPase ACTIVITY
  % Expression induction, SMARCA1: 29.62%
[1]; gene SOCS2, INFLAMMATION, ANTI-INFLAMMATORY RESPONSE
  % Expression induction, SOCS2: 56.13%
[1]; gene TAF1, DNA repair, Protein DNA Complex Assembly
  % Expression induction, TAF1: 65.00%
[1]; gene TAF2, DNA repair, Protein DNA Complex Assembly
  % Expression induction, TAF2: 25.12%
[1]; gene TAF5, DNA repair, Protein DNA Complex Assembly
  % Expression induction, TAF5: 8.18%
[1]; gene TAX1BP1, APOPTOSIS INHIBITION
  % Expression induction, TAX1BP1: 19.23%
[1]; gene TEP1, LONGEVITY, TELOMERE MAINTENANCE AND PROTECTION
  % Expression induction, TEP1: 38.49%
[1]; gene TERF1, LONGEVITY, TELOMERE MAINTENANCE AND PROTECTION
  % Expression induction, TERF1: 7.38%
[1]; gene TERF2IP, LONGEVITY, TELOMERE MAINTENANCE AND PROTECTION
  % Expression induction, TERF2IP: 21.63%
[1]; gene TINF2, LONGEVITY, TELOMERE MAINTENANCE AND PROTECTION
  % Expression induction, TINF2: 13.37%
[1]; gene TP53BP2, APOPTOSIS ACTIVATION
  % Expression induction, TP53BP2: 22.34%
[1]; gene WRN, HELICASE ACTIVITY and ATPase ACTIVITY
  % Expression induction, WRN: 35.25%
[1]; gene XIAP, APOPTOSIS INHIBITION
  % Expression induction, XIAP: 51.98%
[1]; gene XRCC2, CELL CYCLE
  % Expression induction, XRCC2: 24.95%
[2]; 0.025 mg/mL
  Activation Average (%) of DNA repair, HCR assay: 203%
[2]; 0.5 mg/mL
  Activation Average (%) of DNA repair, HCR assay: 272%
FOXO response elements
  Stimulation Average (%) of the activation of the FOXO response factors: 186%
